Data reported in US20090202499A1, “Human Telomerase Reverse Transcriptase Peptides” (priority 2006, published 2009).
Entries after “also recorded” stand apart in the source; their conditions may differ.

Assays:
RMA-B7 target cells = assay: hTRT pDNA immunization of HLA-B7 Tg mice, 51Cr-release assay (in vivo processing); details: for % Responders / Responders/Total: hTRT pDNA immunized mice, responder when >10% specific lysis; for Responders/Total: E:T 60:1; for processing and CTL response after hTRT plasmid DNA immunization (in words): splenocytes restimulated in vitro with peptide
Procedure: DNA immunization. A DNA vector coding for the hTRT expressed under the control of CMV promoter was purified on plasmid Giga Kit columns under endotoxin-free conditions (Qiagen, Hilden, Germany). Anesthetized HLA-B*0702 transgenic mice were injected with 50 micro-liters of cardiotoxin into each tibialis anterior muscle 5-6 days prior DNA injection. For vaccination, 50 micro-liters of DNA (1 micro-gram/micro-liter in PBS) was injected into each pretreated muscle at day 0 and day 14. Ten days later, spleen cells of individual mice were separately restimulated in vitro with each relevant peptide (10 micrograms/ml) for 6 days. Effector CTL cells were tested in a standard 4 hr ^51Cr-release assay, using RMA-B7 cells (HLA-B*0702 transfected RMA cells) pulsed with test peptide or control peptide (CMV p65-derived R10TV restricted to HLA-B7). Specific % lysis as indicated below. In vivo immunization procedures were preformed in accordance with approved animal protocols at the University of California, San Diego or the Pasteur Institute, respectively.
(§1) CTL assays. Both murine and human CTL were detected by the ^51Cr release assay performed as previously described (14). Briefly, HLA-B7^+ antigen presenting cells (RMA-B7 or T2-B7 cells) were labeled for 1 hr with 100 micro-Ci of Na2^51CrO4 (Perkin Elmer). Washed cells (5×10^3 per well) were mixed in 96-well plates in 100 micro-liters/well with each peptide (at 10 micro-grams/ml or lower concentration) and 100 micro-liters of the CTL effector cells (at various E:T ratio) in RPMI medium. The plates were incubated for 4-5 hrs at 37° C. (5% CO2). The supernatants were harvested and counted on a Wallac 1470 Wizard Gamma counter. The percent lysis was calculated as 100 (cpmexp−cpmspont)/(cpmmax−cpmspont).
Next, we established which among the various candidate peptides was processed and presented from full-length hTRT. To this end, we immunized HLA-B7 Tg mice with hTRT plasmid DNA. […] As shown in Table IV some but not all the peptides were processed and presented in vivo. […] Based on this analysis, it appears that only three of the original seven peptides were processed and presented efficiently in vivo. […] Thus, selection using PAProC algorithm was per se unable to predict hTRT peptides that would be cleaved and become immunogenic in vivo.
HLA-B7 Tg mice were immunized with a pDNA coding for full-length hTRT under the CMV promoter. ^51Cr-release assay was performed after 6 days of in vitro restimulation with respective peptide. Mice were considered responders when >10% specific lysis was observed. Tests were run in duplicate at an E:T ratio of 60:1, using RMA-B7 target cells.

[1] = tested on: T2-B7 pulsed with peptide; assay: small scale in vitro immunization of normal donor PBMC (96 well plate), micro 51Cr-release CTL assay; assay type: cell-based, human; details: for CTL response (specific lysis) Donor 3 / CTL response (specific lysis) Donor 4 / CTL response (specific lysis) Donor 5 / CTL response (specific lysis) Donor 6 / CTL response (specific lysis) Donor 7 / CTL response (specific lysis) Donor 8 / CTL response (specific lysis) Donor 1 / CTL response (specific lysis) Donor 2: HLA-B7+ normal donor PBMC, day 10-11, approximate E:T 10:1; for CTL response of normal donor PBMC in micro-CTL assay (in words): eight HLA-B7+ normal donors; for Low R/Total: low responders among eight donors; for High R/Total: responders considered at >50% specific CTL lysis, eight donors
Procedure: In vitro immunization procedures. In experiments shown in Table III and FIG. 3, immunizations were performed in 96 well plates. Briefly, 2×10^5 irradiated (6000 rads) human PBMC were plated in 96 (flat) well-plate in 100 micro-liters of complete human medium (RPMI 1640 medium containing 10% heat inactivated human AB serum, 2 mM glutamine, 50 micro-grams/ml streptomycin and 50 micro-grams/ml penicillin) with 100 micro-grams/ml of peptide. 12 wells per peptide were plated per patient. Then 2×10^5 PBMC in 100 micro-liters of complete human medium were added into each well. Four days later 100 micro-liters of medium were replaced with 100 micro-liters of fresh complete human medium containing 80 IU/ml of IL-2. At day 6-7, 100 IU/ml of IL-2 were added and wells were split into two. On day 10-11 micro-cytotoxicity assay was performed. In experiments shown in FIGS. 4 and 5 human PBMC were stimulated in vitro in 24 well plate with autologous, irradiated, peptide-pulsed adherent cells in the presence of IL-2 and IL-7 as previously described (12). On day 4 to 5 after restimulation, effector CTL were tested in a standard ^51Cr-release assay.
as §1
To further assess the immunogenicity of the selected peptide candidates as well as their ability to expand precursor CD8 T cell in human PBMC, the following experiment was performed. PBMC from eight HLA-B7^+ normal donors were screened in a small scale in vitro immunization assay (96 well plate assay) to determine the level of responses against each individual peptide. As indicated the response to these peptides varied among the eight donors. […] Thus, the results of this in vitro assay narrowed the spectrum of immunogenic peptides beyond those identified in vivo in HLA-B7 Tg mice. A typical result of this type of analysis is shown in FIG. 3, which depicts the induction of CTL and their specificity in each of the twelve wells. As shown, there is considerable variability in the number of positive wells per peptide as well as in the percentage lysis which itself varied from peptide to peptide. This variation in the response to each peptide may be related to either an intrinsic characteristic of the peptide (e.g., its avidity) or a variation in the frequency of CD8 T cell precursors for that peptide among donors particularly in view of the format of the assay used.
PBMC from HLA-B7^+ normal blood donors were pulsed with the candidate peptide in 96 well plate assay (described in Material and Methods), and tested for lysis of T2-B7 pulsed with peptide on day 10-11. A micro ^51Cr-release assay was performed as described in Material and Methods. Responders were considered at >50% specific CTL lysis. CTL assays were performed at an approximate E:T ratio of 10:1. ND not done

For `CC(C)C[C@H](NC(=O)[C@H](CC(C)C)NC(=O)[C@H](CCC(N)=O)NC(=O)[C@@H](NC(=O)[C@H](CC(C)C)NC(=O)[C@H](CCCNC(=N)N)NC(=O)[C@H](CCCNC(=N)N)NC(=O)[C@@H]1CCCN1C(=O)[C@@H](N)CC(=O)O)C(C)C)C(=O)O` [p444], the “% Responders” value (RMA-B7 target cells) was 0%, the Responders/Total (RMA-B7 target cells) was 0/4 and the “processing and CTL response after hTRT plasmid DNA immunization (in words)” value (“processing and CTL response” below) (RMA-B7 target cells) was “apparently not processed; also recorded: marginally immunogenic if any”. For the same compound, the “CTL response (specific lysis) Donor 3” value [1] was less than 25%, the “CTL response (specific lysis) Donor 4” value [1] was greater than 25% and the “CTL response (specific lysis) Donor 5” value [1] was 0%. The “CTL response (specific lysis) Donor 6” value [1] was 0%, the “CTL response (specific lysis) Donor 7” value [1] was 0% and the “CTL response (specific lysis) Donor 8” value [1] was less than 25%. For the same compound, the “CTL response of normal donor PBMC in micro-CTL assay (in words)” value (“CTL response of normal donor PBMC” for short) [1] was “poorly immunogenic in vitro; also recorded: poor immunogenicity”, the “Low R/Total” value [1] was 1/8 and the “High R/Total” value [1] was 0/8.

With `CC[C@H](C)[C@H](NC(=O)[C@@H](NC(=O)[C@H](CCCCN)NC(=O)[C@H](Cc1ccccc1)NC(=O)[C@H](CC(=O)O)NC(=O)[C@H](CO)NC(=O)[C@@H]1CCCN1C(=O)[C@@H](N)CC(C)C)[C@@H](C)O)C(=O)N[C@@H](CC(C)C)C(=O)O` [p1123] the “% Responders” value (RMA-B7 target cells) was 50%, the Responders/Total (RMA-B7 target cells) was 3/6 and the “processing and CTL response” value (RMA-B7 target cells) was “greater CTL responses than the other peptides”. The “CTL response (specific lysis) Donor 1” value [1] was greater than 50%, the “CTL response (specific lysis) Donor 2” value [1] was greater than 50% and the “CTL response (specific lysis) Donor 3” value [1] was greater than 50%. The “CTL response (specific lysis) Donor 4” value [1] was less than 25%, the “CTL response (specific lysis) Donor 5” value [1] was greater than 50% and the “CTL response (specific lysis) Donor 6” value [1] was greater than 50%. For the same compound, the “CTL response (specific lysis) Donor 7” value [1] was greater than 50%, the “CTL response (specific lysis) Donor 8” value [1] was greater than 50% and the “CTL response of normal donor PBMC” value [1] was “strong responses in the majority of the subjects”. The “Low R/Total” value [1] was 0/8 and the “High R/Total” value [1] was 7/8.

`CC(C)C[C@H](NC(=O)[C@H](CO)NC(=O)[C@@H](NC(=O)[C@H](C)NC(=O)[C@H](CCC(=O)O)NC(=O)[C@H](CCC(=O)O)NC(=O)[C@H](C)NC(=O)[C@@H]1CCCN1C(=O)[C@@H](N)CCCNC(=N)N)[C@@H](C)O)C(=O)O` [p277] was tested, and the “% Responders” value (RMA-B7 target cells) was 57%, the Responders/Total (RMA-B7 target cells) was 4/7 and the “processing and CTL response” value (RMA-B7 target cells) was “greater CTL responses than the other peptides”. The “CTL response (specific lysis) Donor 1” value [1] was greater than 50%, the “CTL response (specific lysis) Donor 2” value [1] was greater than 50% and the “CTL response (specific lysis) Donor 3” value [1] was greater than 50%. For the same compound, the “CTL response (specific lysis) Donor 4” value [1] was greater than 50%, the “CTL response (specific lysis) Donor 5” value [1] was greater than 50% and the “CTL response (specific lysis) Donor 6” value [1] was less than 25%. For the same compound, the “CTL response (specific lysis) Donor 7” value [1] was less than 25%, the “CTL response (specific lysis) Donor 8” value [1] was less than 25% and the “CTL response of normal donor PBMC” value [1] was “strong responses in the majority of the subjects”. For the same compound, the “Low R/Total” value [1] was 0/8 and the “High R/Total” value [1] was 5/8.

With `CC(C)C[C@H](NC(=O)[C@H](C)NC(=O)[C@@H](NC(=O)[C@H](CC(C)C)NC(=O)[C@@H](NC(=O)[C@@H](NC(=O)CNC(=O)[C@@H]1CCCN1C(=O)[C@@H](N)CC(C)C)[C@@H](C)O)[C@@H](C)O)[C@@H](C)O)C(=O)O` [p1107, LPGTTLTAL] the “% Responders” value (RMA-B7 target cells) was 50%, the Responders/Total (RMA-B7 target cells) was 3/6 and the “processing and CTL response” value (RMA-B7 target cells) was “greater CTL responses than the other peptides”. For the same compound, the “CTL response (specific lysis) Donor 1” value [1] was greater than 50%, the “CTL response (specific lysis) Donor 2” value [1] was greater than 50% and the “CTL response (specific lysis) Donor 3” value [1] was 0%. For the same compound, the “CTL response (specific lysis) Donor 4” value [1] was greater than 50%, the “CTL response (specific lysis) Donor 5” value [1] was greater than 25% and the “CTL response (specific lysis) Donor 6” value [1] was less than 25%. For the same compound, the “CTL response (specific lysis) Donor 7” value [1] was greater than 25%, the “CTL response (specific lysis) Donor 8” value [1] was 0% and the “CTL response of normal donor PBMC” value [1] was “strong responses but in fewer instances only”. For the same compound, the “Low R/Total” value [1] was 2/8 and the “High R/Total” value [1] was 3/8.

`CC(C)C[C@H](NC(=O)[C@H](CCCNC(=N)N)NC(=O)[C@H](CCCNC(=N)N)NC(=O)[C@H](CC(C)C)NC(=O)[C@H](CS)NC(=O)[C@H](C)NC(=O)[C@H](CCCNC(=N)N)NC(=O)[C@@H](NC(=O)[C@@H](N)Cc1ccccc1)C(C)C)C(=O)O` [p464] was tested, and the “% Responders” value (RMA-B7 target cells) was 17%, the Responders/Total (RMA-B7 target cells) was 2/6 and the “processing and CTL response” value (RMA-B7 target cells) was “marginally immunogenic if any”. The “CTL response (specific lysis) Donor 1” value [1] was greater than 50%, the “CTL response (specific lysis) Donor 2” value [1] was greater than 50% and the “CTL response (specific lysis) Donor 3” value [1] was 0%. The “CTL response (specific lysis) Donor 4” value [1] was greater than 25%, the “CTL response (specific lysis) Donor 5” value [1] was less than 25% and the “CTL response (specific lysis) Donor 6” value [1] was less than 25%. The “CTL response (specific lysis) Donor 7” value [1] was less than 25%, the “CTL response (specific lysis) Donor 8” value [1] was 0% and the “CTL response of normal donor PBMC” value [1] was “strong responses but in fewer instances only”. The “Low R/Total” value [1] was 1/8 and the “High R/Total” value [1] was 2/8.

With `CC(C)C[C@H](NC(=O)[C@H](CO)NC(=O)[C@H](CO)NC(=O)[C@H](CC(C)C)NC(=O)[C@H](CC(C)C)NC(=O)[C@H](Cc1ccccc1)NC(=O)[C@H](CO)NC(=O)[C@@H]1CCCN1C(=O)[C@@H](N)CCCNC(=N)N)C(=O)O` [p342] the “% Responders” value (RMA-B7 target cells) was 29%, the Responders/Total (RMA-B7 target cells) was 2/7 and the “processing and CTL response” value (RMA-B7 target cells) was “marginally immunogenic if any”. The “CTL response (specific lysis) Donor 1” value [1] was greater than 25%, the “CTL response (specific lysis) Donor 2” value [1] was greater than 25% and the “CTL response (specific lysis) Donor 3” value [1] was greater than 25%. The “CTL response (specific lysis) Donor 4” value [1] was greater than 50%, the “CTL response (specific lysis) Donor 5” value [1] was 0% and the “CTL response (specific lysis) Donor 6” value [1] was less than 25%. For the same compound, the “CTL response (specific lysis) Donor 7” value [1] was greater than 25%, the “CTL response (specific lysis) Donor 8” value [1] was 0% and the “CTL response of normal donor PBMC” value [1] was “strong responses but in fewer instances only”. For the same compound, the “Low R/Total” value [1] was 4/8 and the “High R/Total” value [1] was 1/8.
